Assays:
Caco-2 cell line = assay: Cytotoxicity MTS assay, Caco-2 cell line; assay type: cell-based; conditions: for OD490 Mean / OD490 Well 1 / OD490 Well 2 / OD490 Well 3: Caco-2 cell line
Outline: (§1)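 MTS antiproliferation; 1000 cells/well, 24 h pre-incubation; compound 0.5–100 µM final, 24 h exposure; vehicle 0.025% DMSO; monastrol positive control; MTS 2 h, 37 °C, 5% CO2; A490; IC50 by non-linear regression of % viability vs concentration; three independent duplicate runs.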

T24 cell line = assay: Cytotoxicity MTS assay, T24 cell line; assay type: cell-based; conditions: for OD490 Mean / OD490 Well 1 / OD490 Well 2 / OD490 Well 3: T24 cell line, first assay;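 for OD490 Mean: blank control wells received 0.025% DMSO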;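 for OD490 Well 1: blank control wells received 0.025% DMSO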;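 for OD490 Well 2: blank control wells received 0.025% DMSO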;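 for OD490 Well 3: blank control wells received 0.025% DMSO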
Outline: as §1

## CCOC(=O)c1c(C2NC(=O)NC(C)=C2C(=O)Nc2ccccc2)[nH]c(C(=O)OC)c1C (centres unmarked) [D10]
Caco-2 cell line; 0.5μM, first assay
  OD490 Mean: 0.4742
  OD490 Well 1: 0.4527
  OD490 Well 2: 0.4966
  OD490 Well 3: 0.4734
Caco-2 cell line; 0.5μM, second assay
  OD490 Mean: 0.5530
  OD490 Well 1: 0.531
  OD490 Well 2: 0.6234
  OD490 Well 3: 0.5045
Caco-2 cell line; 0.5μM, third assay
  OD490 Mean: 0.6289
  OD490 Well 1: 0.6132
  OD490 Well 2: 0.6414
  OD490 Well 3: 0.6321
Caco-2 cell line; 1μM, first assay
  OD490 Mean: 0.5016
  OD490 Well 1: 0.5182
  OD490 Well 2: 0.4910
  OD490 Well 3: 0.4957
Caco-2 cell line; 1μM, second assay
  OD490 Mean: 0.6121
  OD490 Well 1: 0.5315
  OD490 Well 2: 0.6788
  OD490 Well 3: 0.626
Caco-2 cell line; 1μM, third assay
  OD490 Mean: 0.6367
  OD490 Well 1: 0.6031
  OD490 Well 2: 0.6621
  OD490 Well 3: 0.6449
Caco-2 cell line; 10μM, first assay
  OD490 Mean: 0.4933
  OD490 Well 1: 0.4499
  OD490 Well 2: 0.5248
  OD490 Well 3: 0.5052
Caco-2 cell line; 10μM, second assay
  OD490 Mean: 0.5658
  OD490 Well 1: 0.6
  OD490 Well 2: 0.624
  OD490 Well 3: 0.4735
Caco-2 cell line; 10μM, third assay
  OD490 Mean: 0.6081
  OD490 Well 1: 0.6012
  OD490 Well 2: 0.6321
  OD490 Well 3: 0.5911
Caco-2 cell line; 25μM, first assay
  OD490 Mean: 0.4730
  OD490 Well 1: 0.3491
  OD490 Well 2: 0.5643
  OD490 Well 3: 0.5057
Caco-2 cell line; 25μM, second assay
  OD490 Mean: 0.5406
  OD490 Well 1: 0.5132
  OD490 Well 2: 0.5889
  OD490 Well 3: 0.5197
Caco-2 cell line; 25μM, third assay
  OD490 Mean: 0.5321
  OD490 Well 1: 0.5365
  OD490 Well 2: 0.4987
  OD490 Well 3: 0.5612
Caco-2 cell line; 50μM, first assay
  OD490 Mean: 0.4403
  OD490 Well 1: 0.3579
  OD490 Well 2: 0.5436
  OD490 Well 3: 0.4193
Caco-2 cell line; 50μM, second assay
  OD490 Mean: 0.4763
  OD490 Well 1: 0.4113
  OD490 Well 2: 0.5208
  OD490 Well 3: 0.4969
Caco-2 cell line; 50μM, third assay
  OD490 Mean: 0.4757
  OD490 Well 1: 0.4698
  OD490 Well 2: 0.4875
  OD490 Well 3: 0.4698
Caco-2 cell line; 100μM, first assay
  OD490 Mean: 0.4342
  OD490 Well 1: 0.3369
  OD490 Well 2: 0.4685
  OD490 Well 3: 0.4971
Caco-2 cell line; 100μM, second assay
  OD490 Mean: 0.4596
  OD490 Well 1: 0.4737
  OD490 Well 2: 0.4587
  OD490 Well 3: 0.4463
Caco-2 cell line; 100μM, third assay
  OD490 Mean: 0.4349
  OD490 Well 1: 0.4356
  OD490 Well 2: 0.4169
  OD490 Well 3: 0.4521
Caco-2 cell line; MTS assay, 24 h exposure
  IC50: 108 µM
T24 cell line; MTS assay, 24 h exposure
  IC50: > 150 µM
T24 cell line; 0.5μM
  OD490 Mean: 1.3759
  OD490 Well 1: 1.3871
  OD490 Well 2: 1.3651
  OD490 Well 3: 1.3756
T24 cell line; 1μM
  OD490 Mean: 1.3764
  OD490 Well 1: 1.2835
  OD490 Well 2: 1.4515
  OD490 Well 3: 1.3943
T24 cell line; 10μM
  OD490 Mean: 1.4610
  OD490 Well 1: 1.3272
  OD490 Well 2: 1.6117
  OD490 Well 3: 1.4442
T24 cell line; 25μM
  OD490 Mean: 1.4209
  OD490 Well 1: 1.3594
  OD490 Well 2: 1.6346
  OD490 Well 3: 1.2686
T24 cell line; 50μM
  OD490 Mean: 1.2169
  OD490 Well 1: 1.1849
  OD490 Well 2: 1.3216
  OD490 Well 3: 1.1441
T24 cell line; 100μM
  OD490 Mean: 1.1356
  OD490 Well 1: 1.2013
  OD490 Well 2: 1.0672
  OD490 Well 3: 1.1383
